Test results from publication PMC4490028 (Cancer research, 2015).

What was measured:
human ABCC3 = human ABCC3 (Homo sapiens, UniProt O15438); test: In vitro vesicular transport, inside-out Sf9 vesicles expressing human ABCC3; assay type: in vitro ADME
human ABCC4 = molecular target: T1, human ABCC4 (Homo sapiens, UniProt O15439); test: In vitro vesicular transport, inside-out Sf9 vesicles expressing human ABCC4
T1 sequence (O15439 1-1325): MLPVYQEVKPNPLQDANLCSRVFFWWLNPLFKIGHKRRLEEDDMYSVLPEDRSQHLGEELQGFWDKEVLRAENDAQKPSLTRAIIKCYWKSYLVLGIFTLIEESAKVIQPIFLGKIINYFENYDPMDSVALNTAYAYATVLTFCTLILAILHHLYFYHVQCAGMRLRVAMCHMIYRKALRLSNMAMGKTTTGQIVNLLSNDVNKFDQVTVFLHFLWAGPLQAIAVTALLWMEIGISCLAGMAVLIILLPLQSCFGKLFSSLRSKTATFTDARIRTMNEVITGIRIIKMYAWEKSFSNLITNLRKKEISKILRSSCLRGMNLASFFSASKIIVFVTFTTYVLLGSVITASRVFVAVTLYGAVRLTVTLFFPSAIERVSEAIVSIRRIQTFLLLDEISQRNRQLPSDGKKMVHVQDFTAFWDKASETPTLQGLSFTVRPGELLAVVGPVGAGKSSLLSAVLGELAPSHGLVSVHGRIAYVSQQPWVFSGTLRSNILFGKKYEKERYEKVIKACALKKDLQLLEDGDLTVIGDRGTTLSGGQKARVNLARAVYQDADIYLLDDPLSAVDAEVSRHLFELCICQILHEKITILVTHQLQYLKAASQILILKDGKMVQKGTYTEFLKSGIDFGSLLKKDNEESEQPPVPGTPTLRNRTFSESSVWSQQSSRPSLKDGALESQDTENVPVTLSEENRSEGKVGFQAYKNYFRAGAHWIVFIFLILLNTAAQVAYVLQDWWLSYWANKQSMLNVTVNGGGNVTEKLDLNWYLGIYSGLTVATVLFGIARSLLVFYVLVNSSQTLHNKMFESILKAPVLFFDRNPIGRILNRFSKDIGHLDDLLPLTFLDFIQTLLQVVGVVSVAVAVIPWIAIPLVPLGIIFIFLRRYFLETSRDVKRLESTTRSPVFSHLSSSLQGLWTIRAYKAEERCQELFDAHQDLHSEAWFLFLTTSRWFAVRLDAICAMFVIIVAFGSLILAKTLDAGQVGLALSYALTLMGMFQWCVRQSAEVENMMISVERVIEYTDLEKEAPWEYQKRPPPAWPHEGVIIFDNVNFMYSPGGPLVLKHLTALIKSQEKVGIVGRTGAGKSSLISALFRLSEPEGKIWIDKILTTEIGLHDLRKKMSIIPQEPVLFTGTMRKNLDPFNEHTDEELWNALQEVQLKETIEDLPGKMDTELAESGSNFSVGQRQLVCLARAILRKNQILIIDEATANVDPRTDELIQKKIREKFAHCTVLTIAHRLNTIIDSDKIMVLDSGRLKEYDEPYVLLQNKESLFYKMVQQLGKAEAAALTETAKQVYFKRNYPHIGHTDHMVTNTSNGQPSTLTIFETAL

human ABCC2 = human ABCC2 (Homo sapiens, UniProt Q92887); test: In vitro vesicular transport, inside-out Sf9 vesicles expressing human ABCC2
Sequence of human ABCC2 (Q92887 whole entry): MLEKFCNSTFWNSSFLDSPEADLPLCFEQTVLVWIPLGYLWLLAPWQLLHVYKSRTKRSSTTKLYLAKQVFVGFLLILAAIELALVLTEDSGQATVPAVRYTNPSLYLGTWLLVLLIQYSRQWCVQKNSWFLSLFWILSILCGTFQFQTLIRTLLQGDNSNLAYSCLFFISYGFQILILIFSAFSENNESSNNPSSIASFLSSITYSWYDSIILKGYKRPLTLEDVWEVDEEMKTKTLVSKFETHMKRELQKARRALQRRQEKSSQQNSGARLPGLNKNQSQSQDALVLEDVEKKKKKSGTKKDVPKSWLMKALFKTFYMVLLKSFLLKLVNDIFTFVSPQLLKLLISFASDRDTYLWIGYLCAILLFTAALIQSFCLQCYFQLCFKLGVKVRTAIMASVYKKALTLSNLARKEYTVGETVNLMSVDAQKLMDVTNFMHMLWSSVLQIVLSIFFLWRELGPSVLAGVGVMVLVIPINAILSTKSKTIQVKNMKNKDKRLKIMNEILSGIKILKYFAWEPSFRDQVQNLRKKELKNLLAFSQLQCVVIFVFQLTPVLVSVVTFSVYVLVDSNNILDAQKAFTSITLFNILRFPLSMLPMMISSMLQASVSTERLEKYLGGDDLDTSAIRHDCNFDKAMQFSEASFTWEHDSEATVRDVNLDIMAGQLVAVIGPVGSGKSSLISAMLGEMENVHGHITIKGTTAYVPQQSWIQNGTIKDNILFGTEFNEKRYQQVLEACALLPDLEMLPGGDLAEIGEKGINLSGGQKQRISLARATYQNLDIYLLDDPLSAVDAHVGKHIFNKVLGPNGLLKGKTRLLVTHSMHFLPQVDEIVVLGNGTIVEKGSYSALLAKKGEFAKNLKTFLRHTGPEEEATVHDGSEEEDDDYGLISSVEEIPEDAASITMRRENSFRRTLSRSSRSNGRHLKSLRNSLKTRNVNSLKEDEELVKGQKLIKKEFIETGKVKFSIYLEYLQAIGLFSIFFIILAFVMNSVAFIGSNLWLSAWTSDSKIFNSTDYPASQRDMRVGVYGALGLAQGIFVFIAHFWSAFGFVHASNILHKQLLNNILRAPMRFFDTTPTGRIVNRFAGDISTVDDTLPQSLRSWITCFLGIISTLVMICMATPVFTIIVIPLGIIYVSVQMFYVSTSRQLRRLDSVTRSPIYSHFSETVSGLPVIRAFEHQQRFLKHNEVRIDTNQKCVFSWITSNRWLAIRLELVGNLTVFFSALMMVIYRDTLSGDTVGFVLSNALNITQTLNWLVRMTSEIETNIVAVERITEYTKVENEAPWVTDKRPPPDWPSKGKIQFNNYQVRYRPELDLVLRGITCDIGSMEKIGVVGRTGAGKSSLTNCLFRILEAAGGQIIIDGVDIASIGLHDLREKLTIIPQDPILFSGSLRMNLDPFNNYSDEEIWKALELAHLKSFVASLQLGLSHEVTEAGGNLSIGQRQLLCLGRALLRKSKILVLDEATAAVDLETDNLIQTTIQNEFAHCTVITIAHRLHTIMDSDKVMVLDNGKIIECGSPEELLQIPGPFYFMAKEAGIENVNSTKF

Abcc2 [1] = test: Pharmacokinetics; conditions: after oral sorafenib 10 mg/kg
Oatp1a/1b;Abcc3 = test: Plasma and liver pharmacokinetics after oral sorafenib in Oatp1a/1b; assay type: in vivo, mouse; conditions: oral sorafenib 10 mg/kg; Oatp1a/1b;Abcc3(−/−) mice
[2] = assay type: in vivo, mouse; conditions: oral SG 10 mg/kg
Abcc2 [3] = test: Pharmacokinetics
rat Abcc2 = rat Abcc2 (Rattus norvegicus, UniProt Q63120); test: In vitro vesicular transport, inside-out Sf9 vesicles expressing rat Abcc2; conditions: 5-min incubation, ATP 4 mM
Sequence of rat Abcc2 (Q63120 whole entry): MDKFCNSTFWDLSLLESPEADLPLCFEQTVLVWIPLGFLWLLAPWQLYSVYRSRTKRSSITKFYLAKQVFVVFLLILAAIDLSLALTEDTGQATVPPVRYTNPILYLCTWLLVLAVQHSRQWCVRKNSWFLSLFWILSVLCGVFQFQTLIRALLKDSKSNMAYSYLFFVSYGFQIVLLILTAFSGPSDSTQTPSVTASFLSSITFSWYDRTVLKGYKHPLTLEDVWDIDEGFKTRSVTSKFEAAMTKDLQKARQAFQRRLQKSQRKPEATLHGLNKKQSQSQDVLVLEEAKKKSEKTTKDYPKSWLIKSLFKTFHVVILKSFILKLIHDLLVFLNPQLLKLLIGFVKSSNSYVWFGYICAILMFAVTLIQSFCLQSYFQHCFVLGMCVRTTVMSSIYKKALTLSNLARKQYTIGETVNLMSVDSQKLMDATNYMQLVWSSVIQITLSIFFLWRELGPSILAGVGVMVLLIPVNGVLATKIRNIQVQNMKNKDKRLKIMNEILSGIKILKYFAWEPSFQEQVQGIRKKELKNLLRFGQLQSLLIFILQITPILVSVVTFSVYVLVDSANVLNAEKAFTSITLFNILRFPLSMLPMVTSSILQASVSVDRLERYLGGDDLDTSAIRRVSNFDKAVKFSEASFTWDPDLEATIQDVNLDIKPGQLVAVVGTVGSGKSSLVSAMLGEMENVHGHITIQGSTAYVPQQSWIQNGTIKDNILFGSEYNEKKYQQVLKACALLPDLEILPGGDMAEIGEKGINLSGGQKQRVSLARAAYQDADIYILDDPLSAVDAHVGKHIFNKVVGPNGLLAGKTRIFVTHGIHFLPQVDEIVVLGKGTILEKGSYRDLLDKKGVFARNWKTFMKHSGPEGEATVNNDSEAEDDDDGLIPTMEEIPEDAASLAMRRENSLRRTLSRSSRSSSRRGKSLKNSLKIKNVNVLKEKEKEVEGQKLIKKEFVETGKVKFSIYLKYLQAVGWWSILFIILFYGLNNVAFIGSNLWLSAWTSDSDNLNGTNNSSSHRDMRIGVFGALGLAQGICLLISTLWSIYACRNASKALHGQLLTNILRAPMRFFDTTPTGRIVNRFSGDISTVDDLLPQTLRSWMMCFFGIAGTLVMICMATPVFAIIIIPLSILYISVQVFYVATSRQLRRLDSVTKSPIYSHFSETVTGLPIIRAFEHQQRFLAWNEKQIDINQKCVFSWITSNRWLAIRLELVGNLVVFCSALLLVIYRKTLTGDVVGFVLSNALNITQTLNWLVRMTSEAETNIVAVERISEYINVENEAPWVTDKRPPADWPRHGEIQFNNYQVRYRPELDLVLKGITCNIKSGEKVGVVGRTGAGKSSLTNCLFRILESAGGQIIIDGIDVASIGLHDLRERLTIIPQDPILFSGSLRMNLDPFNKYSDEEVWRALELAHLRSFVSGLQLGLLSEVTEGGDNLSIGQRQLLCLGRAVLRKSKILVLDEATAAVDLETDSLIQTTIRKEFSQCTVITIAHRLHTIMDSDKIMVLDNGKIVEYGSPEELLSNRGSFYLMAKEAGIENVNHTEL

[4] = Sorafenib plasma concentrations in FVB wildtype mice after oral sorafenib; conditions: sorafenib 10 mg/kg oral
[5] = test system: mouse intestinal β-glucuronidases; test: Ex vivo cecal incubations of SG; assay type: in vitro ADME; conditions: SG 2 µM, 6-hour period
Oatp1a/1b;Abcc2 = conditions: oral sorafenib 10 mg/kg; Oatp1a/1b;Abcc2(−/−) mice
Oatp1a/1b;Abcc2;Abcc3 = conditions: oral sorafenib 10 mg/kg; Oatp1a/1b;Abcc2;Abcc3(−/−) mice
Oatp1a/1b = test: Plasma and liver pharmacokinetics after oral sorafenib in Oatp1a/1b; assay type: in vivo, mouse; conditions: oral sorafenib 10 mg/kg; Oatp1a/1b(−/−) mice
Abcc3 = test: Plasma and liver pharmacokinetics after oral sorafenib in Abcc3; assay type: in vivo, mouse; conditions: oral sorafenib 10 mg/kg; Abcc3(−/−) mice
[6] = cited from earlier work
Abcc4 = test: Plasma and liver pharmacokinetics after oral sorafenib in Abcc4; conditions: after oral sorafenib 10 mg/kg; Abcc4(−/−) mice
mouse Abcc2 = mouse Abcc2 (Mus musculus, UniProt Q8VI47); test: In vitro vesicular transport, inside-out Sf9 vesicles expressing mouse Abcc2; conditions: SG 10 µM, 5-min incubation, ATP 4 mM
Abcc3;Abcc4 = test: Plasma and liver pharmacokinetics after oral sorafenib in Abcc3; conditions: after oral sorafenib 10 mg/kg; Abcc3;Abcc4(−/−) mice
[7] = rifampin 100 µM, SG 10 µM, 5 min
[8] = SG 10 µM, 5-min incubation, ATP 4 mM
[9] = increasing SG concentrations, 5 min, ATP 4 mM
[10] = read-out: Km of SG transport, increasing SG concentrations, 5 min, ATP 4 mM

Sequence of human ABCC3 (O15438 whole entry): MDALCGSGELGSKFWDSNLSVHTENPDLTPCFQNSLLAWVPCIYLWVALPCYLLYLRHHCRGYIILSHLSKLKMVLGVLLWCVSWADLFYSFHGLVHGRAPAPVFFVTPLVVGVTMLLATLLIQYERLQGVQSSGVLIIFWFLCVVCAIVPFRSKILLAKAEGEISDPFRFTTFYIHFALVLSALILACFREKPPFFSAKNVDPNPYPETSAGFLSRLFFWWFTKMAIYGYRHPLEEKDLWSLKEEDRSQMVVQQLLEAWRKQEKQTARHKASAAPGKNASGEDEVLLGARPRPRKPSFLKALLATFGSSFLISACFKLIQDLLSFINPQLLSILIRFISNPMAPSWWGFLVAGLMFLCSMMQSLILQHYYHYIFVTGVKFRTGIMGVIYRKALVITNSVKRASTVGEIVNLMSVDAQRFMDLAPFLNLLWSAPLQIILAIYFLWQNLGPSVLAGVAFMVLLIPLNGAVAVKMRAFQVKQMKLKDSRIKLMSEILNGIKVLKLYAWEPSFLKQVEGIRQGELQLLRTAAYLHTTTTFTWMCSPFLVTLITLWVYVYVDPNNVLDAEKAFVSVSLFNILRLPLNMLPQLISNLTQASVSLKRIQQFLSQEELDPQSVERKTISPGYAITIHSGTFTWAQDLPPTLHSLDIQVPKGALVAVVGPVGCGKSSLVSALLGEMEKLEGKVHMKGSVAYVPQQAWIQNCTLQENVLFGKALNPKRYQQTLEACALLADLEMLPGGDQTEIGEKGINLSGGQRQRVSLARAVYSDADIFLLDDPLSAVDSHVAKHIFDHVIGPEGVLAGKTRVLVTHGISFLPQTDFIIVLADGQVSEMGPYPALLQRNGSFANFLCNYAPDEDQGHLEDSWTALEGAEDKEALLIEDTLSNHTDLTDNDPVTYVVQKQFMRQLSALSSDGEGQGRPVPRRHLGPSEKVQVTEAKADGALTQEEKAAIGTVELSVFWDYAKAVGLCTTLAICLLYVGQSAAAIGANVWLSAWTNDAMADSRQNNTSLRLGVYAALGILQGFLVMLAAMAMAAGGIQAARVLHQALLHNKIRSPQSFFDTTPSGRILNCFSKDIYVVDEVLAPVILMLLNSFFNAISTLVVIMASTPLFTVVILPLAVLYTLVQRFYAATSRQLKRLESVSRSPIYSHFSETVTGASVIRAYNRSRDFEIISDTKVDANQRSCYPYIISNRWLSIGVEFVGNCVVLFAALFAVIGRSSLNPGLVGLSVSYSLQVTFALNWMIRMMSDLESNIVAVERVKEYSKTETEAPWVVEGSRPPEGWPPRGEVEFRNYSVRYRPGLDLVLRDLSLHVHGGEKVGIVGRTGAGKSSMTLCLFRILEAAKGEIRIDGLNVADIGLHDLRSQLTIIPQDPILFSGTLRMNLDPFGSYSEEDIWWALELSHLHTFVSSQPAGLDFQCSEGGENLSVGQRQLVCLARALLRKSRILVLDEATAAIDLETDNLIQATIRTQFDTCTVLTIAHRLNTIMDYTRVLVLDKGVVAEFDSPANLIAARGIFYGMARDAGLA

CO[C@H]1/C=C/O[C@@]2(C)Oc3c(C)c(O)c4c(O)c(c(/C=N/N5CCN(C)CC5)c(O)c4c3C2=O)NC(=O)/C(C)=C\C=C\[C@H](C)[C@H](O)[C@@H](C)[C@@H](O)[C@@H](C)[C@H](OC(C)=O)[C@@H]1C [rifampin]
inhibition of ABCC3-mediated SG uptake (human ABCC3; [7]): sensitive to inhibition | inhibition of ABCC4-mediated SG uptake (human ABCC4; [7]): sensitive to inhibition | inhibition of ABCC2-mediated SG uptake (human ABCC2; [7]): sensitive to inhibition

CNC(=O)c1cc(Oc2ccc(NC(=O)Nc3ccc(Cl)c(C(F)(F)F)c3)cc2)cc[n+]1[O-] [sorafenib-N-oxide]
increase in plasma levels in Abcc2(−/−) versus wildtype rats (Abcc2 [1]): ~ 2 fold

CNC(=O)c1cc(Oc2ccc(NC(=O)Nc3ccc(Cl)c(C(F)(F)F)c3)cc2)ccn1 [sorafenib]
liver levels of sorafenib versus wildtype (Oatp1a/1b;Abcc3): similar | plasma levels of sorafenib versus wildtype (Oatp1a/1b;Abcc3): not substantially altered | time until sorafenib was detected in plasma after SG administration ([2]; initial study): 8 h | sorafenib peak levels in plasma of vehicle-pretreated mice ([2]; at 8 hours after SG administration): 226 to 897 ng/mL | sorafenib levels in plasma of neomycin-pretreated mice ([2]; neomycin 200 mg/kg twice daily for 5 days, 8 to 24 hours): below the limit of quantification | time of sorafenib peak levels after SG administration ([2]; vehicle-pretreated mice): 8 h | biliary output of sorafenib, Abcc2(−/−) compared to wildtype mice (Abcc2 [3]; oral sorafenib 10 mg/kg): not associated with altered | liver uptake of sorafenib, Abcc2(−/−) compared to wildtype mice (Abcc2 [3]; oral sorafenib 10 mg/kg): not associated with altered | plasma disposition of sorafenib, Abcc2(−/−) compared to wildtype mice (Abcc2 [3]; oral sorafenib 10 mg/kg): not associated with altered | transport of sorafenib (rat Abcc2; sorafenib 10 µM): weakly | sorafenib plasma steady-state concentrations [4]: 6 to 10 µM | sorafenib levels formed from SG in crude suspension of cecal content [5]: corresponding increase | increase in plasma levels in Abcc2(−/−) versus wildtype rats (Abcc2 [1]): ~ 2 fold | plasma and liver levels of sorafenib (Oatp1a/1b;Abcc2): not substantially altered | plasma and liver levels of sorafenib (Oatp1a/1b;Abcc2;Abcc3): not substantially altered | liver levels of sorafenib versus wildtype (Oatp1a/1b): similar | plasma levels of sorafenib versus wildtype (Oatp1a/1b): not substantially altered | plasma sorafenib exposure, lower than wildtype (Oatp1a/1b): ~ 25% | liver levels of sorafenib versus wildtype (Abcc3): similar | plasma levels of sorafenib versus wildtype (Abcc3): not substantially altered | average sorafenib plasma steady-state concentrations ([6]; adults and children treated at 400 mg or 200 mg/m^2 twice daily): 10 µM | decrease of systemic exposure to sorafenib by neomycin treatment ([6]; neomycin treatment in humans): more than 50% | sorafenib uptake relative to control vesicles (human ABCC2; sorafenib 10 µM, 5-min incubation, ATP 4 mM): moderately increased

sorafenib-glucuronide [SG]
uptake of SG relative to control vesicles (human ABCC3; [8]): efficiently increased | transport efficiency, lower than that observed for ABCC2 (human ABCC3; SG transport): about 7 fold | Vmax of SG transport (human ABCC3; [9]): 196 ± 44 pmol/min/mg | Km (human ABCC3; [10]): 186 ± 72 µM | uptake of SG relative to control vesicles (human ABCC4; [8]): efficiently increased | transport efficiency, lower than that observed for ABCC2 (human ABCC4; SG transport): about 7 fold | Vmax of SG transport (human ABCC4; [9]): 221 ± 11 pmol/min/mg | Km (human ABCC4; [10]): 146 ± 14 µM | SG liver-to-plasma ratio in Abcc2(−/−) versus wildtype mice (Abcc2 [3]; after oral sorafenib 10 mg/kg): decreased | increase in SG liver concentrations in Abcc2(−/−) versus wildtype mice (Abcc2 [3]; after oral sorafenib 10 mg/kg): ~ 3 fold | increase of plasma levels of SG in Abcc2(−/−) versus wildtype mice (Abcc2 [3]; after oral sorafenib 10 mg/kg): ~ 350 fold | reduction of biliary output of SG in Abcc2(−/−) versus wildtype mice (Abcc2 [3]; after oral sorafenib 10 mg/kg, bile collected for 2 hours): ~ 12 fold | urinary excretion (Abcc2 [3]; after oral sorafenib 10 mg/kg, irrespective of Abcc2 status): minor route of elimination | concentrations of SG in plasma and liver, effect of Abcc4 deficiency (Abcc4): not substantially affected | uptake of SG relative to control vesicles (rat Abcc2; SG 10 µM): efficiently increased | uptake of SG relative to control vesicles (mouse Abcc2): efficiently increased | SG in bile of wildtype or Abcc2(−/−) rats (Abcc2 [1]): not detected | SG in plasma of wildtype or Abcc2(−/−) rats (Abcc2 [1]): not detected | concentrations of SG in plasma and liver, effect of Abcc4 deficiency (Abcc3;Abcc4): not substantially affected | uptake of SG relative to control vesicles (human ABCC2; [8]): efficiently increased | maximal velocity (Vmax) of SG transport (human ABCC2; [9]): 155 ± 11 pmol/min/mg
